Assay results from article PMC5263201, “GABAA receptor occupancy by subtype selective GABAAα2,3 modulators: PET studies in humans” (Psychopharmacology, 2016).
Like-named read-outs stand apart in the source and are kept apart here.

Tests used:
[1] = system: generalized anxiety disorder; set-up: method as in Chen et al. 2014, ClinTrials.gov; details: ref Chen et al. 2014, ClinTrials.gov; cited from earlier work
GABAA α3β3γ2 [2] = system: GABAA α3β3γ2; set-up: method as in Christian et al 2015; details: 1µM test concentration, GABA EC10, % of 1 µM diazepam, mean ±SE, ref Christian et al 2015; cited from earlier work
GABAA α3β3γ2 [3] = biological target: GABAA α3β3γ2; set-up: method as in Christian et al 2015; details: recombinant Sf9 membranes α3β3γ2; [3H]flunitrazepam; mean (SD); ref Christian et al 2015; read-out: Affinity in vitro at BZ binding site (Ki) α3; cited from earlier work
GABAA α1β2γ2 [4] = biological target: GABAA α1β2γ2; set-up: method as in Christian et al 2015; details: recombinant Sf9 membranes α1β2γ2; [3H]flunitrazepam; mean (SD); ref Christian et al 2015; read-out: Affinity in vitro at BZ binding site (Ki) α1; cited from earlier work
GABAA α2β3γ2 [5] = biological target: GABAA α2β3γ2; set-up: method as in Christian et al 2015; details: recombinant Sf9 membranes α2β3γ2; [3H]flunitrazepam; mean (SD); ref Christian et al 2015; read-out: Affinity in vitro at BZ binding site (Ki) α2; cited from earlier work
Melatonin MT1 = Melatonin MT1 (Homo sapiens, UniProt P48039); assay: Secondary receptor binding profile
Chain of Melatonin MT1 (P48039 whole entry): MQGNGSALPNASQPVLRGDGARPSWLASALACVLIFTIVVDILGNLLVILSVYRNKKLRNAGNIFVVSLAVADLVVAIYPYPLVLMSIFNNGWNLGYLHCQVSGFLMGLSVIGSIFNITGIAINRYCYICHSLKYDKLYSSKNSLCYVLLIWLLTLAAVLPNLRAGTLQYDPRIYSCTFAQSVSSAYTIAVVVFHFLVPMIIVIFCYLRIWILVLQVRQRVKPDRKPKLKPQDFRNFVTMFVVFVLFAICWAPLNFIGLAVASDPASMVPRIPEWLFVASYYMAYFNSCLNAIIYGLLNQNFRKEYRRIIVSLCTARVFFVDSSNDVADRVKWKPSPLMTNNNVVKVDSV

Melatonin MT2 = Melatonin MT2 (Homo sapiens, UniProt P49286); assay: Secondary receptor binding profile
Chain of Melatonin MT2 (P49286 whole entry): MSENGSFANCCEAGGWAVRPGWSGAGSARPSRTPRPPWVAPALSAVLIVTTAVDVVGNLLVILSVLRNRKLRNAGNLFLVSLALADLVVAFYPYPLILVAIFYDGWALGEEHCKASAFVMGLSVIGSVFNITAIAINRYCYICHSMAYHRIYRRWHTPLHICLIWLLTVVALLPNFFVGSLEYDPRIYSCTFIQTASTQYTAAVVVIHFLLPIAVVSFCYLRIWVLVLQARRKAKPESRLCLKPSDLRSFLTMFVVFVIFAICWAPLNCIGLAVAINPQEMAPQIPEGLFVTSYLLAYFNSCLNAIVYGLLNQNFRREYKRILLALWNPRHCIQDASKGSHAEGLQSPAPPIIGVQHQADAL

GABAA α1β2γ2 [6] = system: GABAA α1β2γ2; set-up: method as in Christian et al 2015; details: 1µM test concentration, GABA EC10, % of 1 µM diazepam, mean ±SE, ref Christian et al 2015; cited from earlier work
[7] = AZD6280; ref parallel multiple ascending dose study; cited from earlier work
P-gp = P-gp (Homo sapiens, UniProt P08183); assay: P-gp substrate assessment; format: in vitro ADME
Chain of P-gp (P08183 whole entry): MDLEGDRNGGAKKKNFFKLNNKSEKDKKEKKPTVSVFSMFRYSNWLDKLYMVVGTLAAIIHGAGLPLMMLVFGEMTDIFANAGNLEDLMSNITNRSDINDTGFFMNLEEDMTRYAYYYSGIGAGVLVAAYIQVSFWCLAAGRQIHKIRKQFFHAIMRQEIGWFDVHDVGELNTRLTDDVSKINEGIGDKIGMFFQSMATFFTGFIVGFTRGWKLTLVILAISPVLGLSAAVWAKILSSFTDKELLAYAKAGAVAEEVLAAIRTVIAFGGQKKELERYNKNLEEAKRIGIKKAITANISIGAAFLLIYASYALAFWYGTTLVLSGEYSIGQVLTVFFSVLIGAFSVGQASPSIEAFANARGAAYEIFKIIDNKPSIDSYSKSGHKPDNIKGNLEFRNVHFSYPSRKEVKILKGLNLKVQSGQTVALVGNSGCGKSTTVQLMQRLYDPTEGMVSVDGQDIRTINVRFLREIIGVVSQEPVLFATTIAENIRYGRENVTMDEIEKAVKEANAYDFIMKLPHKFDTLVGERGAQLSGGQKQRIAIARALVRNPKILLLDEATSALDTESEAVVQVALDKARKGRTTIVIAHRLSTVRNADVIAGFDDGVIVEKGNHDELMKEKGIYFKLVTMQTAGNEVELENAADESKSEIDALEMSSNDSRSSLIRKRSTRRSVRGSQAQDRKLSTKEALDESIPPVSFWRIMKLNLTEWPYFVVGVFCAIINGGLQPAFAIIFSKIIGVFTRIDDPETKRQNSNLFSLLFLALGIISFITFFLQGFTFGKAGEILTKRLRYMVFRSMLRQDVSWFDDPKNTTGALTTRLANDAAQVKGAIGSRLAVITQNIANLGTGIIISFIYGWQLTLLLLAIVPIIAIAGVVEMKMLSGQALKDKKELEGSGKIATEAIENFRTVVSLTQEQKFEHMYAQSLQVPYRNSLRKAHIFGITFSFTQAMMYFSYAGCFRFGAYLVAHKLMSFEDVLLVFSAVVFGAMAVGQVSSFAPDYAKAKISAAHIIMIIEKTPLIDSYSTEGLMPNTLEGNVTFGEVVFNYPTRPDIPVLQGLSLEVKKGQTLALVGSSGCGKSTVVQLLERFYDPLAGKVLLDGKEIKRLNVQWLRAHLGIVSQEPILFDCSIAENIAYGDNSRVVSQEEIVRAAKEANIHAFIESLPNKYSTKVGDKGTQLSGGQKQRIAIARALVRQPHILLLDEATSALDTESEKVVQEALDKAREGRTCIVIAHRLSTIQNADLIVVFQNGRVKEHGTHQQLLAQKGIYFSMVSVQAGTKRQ

[8] = set-up: method as in AstraZeneca Single Ascending Dose studies; details: ref AstraZeneca Single Ascending Dose studies, cited from earlier work
[9] = Binding to human plasma proteins; format: in vitro ADME; details: read-out: unbound fraction of the total plasma drug
GABAA α2β3γ2 [10] = system: GABAA α2β3γ2; set-up: method as in Christian et al 2015; details: 1µM test concentration, GABA EC10, % of 1 µM diazepam, mean ±SE, ref Christian et al 2015; cited from earlier work
GABAA α5β3γ2 = system: GABAA α5β3γ2; set-up: method as in Christian et al 2015; details: 1µM test concentration, GABA EC10, % of 1 µM diazepam, mean ±SE, ref Christian et al 2015; cited from earlier work
[11] = AZD6280 1mg, Part A, 8 subjects
[12] = AZD6280 5mg, Part B, 8 subjects
[13] = AZD6280 20mg, Part A, 8 subjects
[14] = AZD6280 30mg, Part B, 7 subjects
[15] = AZD6280 40mg, Part A, 8 subjects
[16] = AZD6280 60mg, Part B, 8 subjects

CCCNC(=O)c1nnc2c(-c3c(F)cccc3OC)cccc2c1N [AZD7325]
anxiolytic effect in patients with generalized anxiety disorder [1]: only a weak anxiolytic effect

CCCNC(=O)c1nnc2c(-c3cc(OC)ccc3OC)cccc2c1N [AZD6280]
Relative efficacy (%DZ) α3 (GABAA α3β3γ2 [2]): 34±3%
Ki (GABAA α3β3γ2 [3]): 31 ± 17 nM
Ki (GABAA α1β2γ2 [4]): 0.5 ± 0.2 nM
Ki (GABAA α2β3γ2 [5]): 21 ± 5 nM
IC50 (Melatonin MT1): 116 nM
IC50 (Melatonin MT2): 664 nM
Relative efficacy (%DZ) α1 (GABAA α1β2γ2 [6]): 9±3%
maximum tolerated dose (MTD) [7]: 40 mg
P-gp substrate (P-gp): Neither compound is a P-gp substrate
Number of subjects with at least one adverse event [8, 11]: 2 (25) Number (%) of patients
abnormal coordination [8, 11]: 0 Number (%) of patients
depersonalisation [8, 11]: 0 Number (%) of patients
dizziness [8, 11]: 0 Number (%) of patients
dreamy state [8, 11]: 0 Number (%) of patients
euphoric mood [8, 11]: 0 Number (%) of patients
headache [8, 11]: 1 (13) Number (%) of patients
nystagmus [8, 11]: 0 Number (%) of patients
somnolence [8, 11]: 0 Number (%) of patients
abnormal coordination [8, 12]: 0 Number (%) of patients
depersonalisation [8, 12]: 0 Number (%) of patients
dizziness [8, 12]: 2 (25) Number (%) of patients
dreamy state [8, 12]: 0 Number (%) of patients
euphoric mood [8, 12]: 0 Number (%) of patients
headache [8, 12]: 1 (13) Number (%) of patients
nystagmus [8, 12]: 0 Number (%) of patients
somnolence [8, 12]: 1 (13) Number (%) of patients
Number of subjects with at least one adverse event [8, 13]: 6 (75) Number (%) of patients
abnormal coordination [8, 13]: 0 Number (%) of patients
depersonalisation [8, 13]: 0 Number (%) of patients
dizziness [8, 13]: 0 Number (%) of patients
dreamy state [8, 13]: 0 Number (%) of patients
euphoric mood [8, 13]: 0 Number (%) of patients
headache [8, 13]: 2 (25) Number (%) of patients
nystagmus [8, 13]: 0 Number (%) of patients
somnolence [8, 13]: 1 (13) Number (%) of patients
Number of subjects with at least one adverse event [8, 14]: 2 (29) Number (%) of patients
abnormal coordination [8, 14]: 0 Number (%) of patients
depersonalisation [8, 14]: 0 Number (%) of patients
dizziness [8, 14]: 0 Number (%) of patients
dreamy state [8, 14]: 0 Number (%) of patients
euphoric mood [8, 14]: 1 (14) Number (%) of patients
headache [8, 14]: 0 Number (%) of patients
nystagmus [8, 14]: 0 Number (%) of patients
somnolence [8, 14]: 2 (29) Number (%) of patients
Number of subjects with at least one adverse event [8, 15]: 6 (75) Number (%) of patients
abnormal coordination [8, 15]: 0 Number (%) of patients
depersonalisation [8, 15]: 0 Number (%) of patients
dizziness [8, 15]: 0 Number (%) of patients
dreamy state [8, 15]: 0 Number (%) of patients
euphoric mood [8, 15]: 1 (13) Number (%) of patients
headache [8, 15]: 0 Number (%) of patients
nystagmus [8, 15]: 0 Number (%) of patients
somnolence [8, 15]: 3 (38) Number (%) of patients
Number of subjects with at least one adverse event [8, 16]: 7 (88) Number (%) of patients
abnormal coordination [8, 16]: 1 (13) Number (%) of patients
depersonalisation [8, 16]: 1 (13) Number (%) of patients
dizziness [8, 16]: 2 (25) Number (%) of patients
dreamy state [8, 16]: 1 (13) Number (%) of patients
euphoric mood [8, 16]: 0 Number (%) of patients
headache [8, 16]: 1 (13) Number (%) of patients
nystagmus [8, 16]: 1 (13) Number (%) of patients
somnolence [8, 16]: 3 (38) Number (%) of patients
fraction unbound [9]: ~0.1
Relative efficacy (%DZ) α2 (GABAA α2β3γ2 [10]): 36±4%
Relative efficacy (%DZ) α5 (GABAA α5β3γ2): 8±2%
